Source: the supplement of paper PMC10307832

Columns and labels:
Assay in all cases: relative viability (nuclei count vs DMSO), 5 days (fraction); higher = more cells survive
DM3189 + Foretinib = compound: C1CN(CCN1)C2=CC=C(C=C2)C3=CN4C(=C(C=N4)C5=CC=NC6=CC=CC=C56)N=C3 [DM3189] + COc1cc2c(Oc3ccc(NC(=O)C4(C(=O)Nc5ccc(F)cc5)CC4)cc3F)ccnc2cc1OCCCN1CCOCC1 [Foretinib] (partner 0.25 µM)
Procedure, shortened: (§1)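 Lung cancer cell lines in 1536-well plates got either a single drug or a fixed anchor-drug dose together with five library-drug doses (not always all listed) in √10 steps, by pin tool, on the day after seeding. Nuclei were counted after 5 days, and relative viability is the treated-to-vehicle ratio of nuclei counts. Values are medians of duplicate plates.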

DM3189 + Luminespib = compound: C1CN(CCN1)C2=CC=C(C=C2)C3=CN4C(=C(C=N4)C5=CC=NC6=CC=CC=C56)N=C3 [DM3189] + CCNC(=O)c1noc(-c2cc(C(C)C)c(O)cc2O)c1-c1ccc(CN2CCOCC2)cc1 [Luminespib] (partner 0.01 µM)
Procedure, shortened: as §1

DM3189 + Alpelisib = compound: C1CN(CCN1)C2=CC=C(C=C2)C3=CN4C(=C(C=N4)C5=CC=NC6=CC=CC=C56)N=C3 [DM3189] + Cc1nc(NC(=O)N2CCC[C@H]2C(N)=O)sc1-c1ccnc(C(C)(C)C(F)(F)F)c1 [Alpelisib] (partner 2 µM)
Procedure, shortened: as §1

DM3189 + Decitabine = compound: C1CN(CCN1)C2=CC=C(C=C2)C3=CN4C(=C(C=N4)C5=CC=NC6=CC=CC=C56)N=C3 [DM3189] + Nc1ncn([C@H]2C[C@H](O)[C@@H](CO)O2)c(=O)n1 [Decitabine] (partner 2 µM)
Procedure, shortened: as §1

DM3189 + OSI-027 = compound: C1CN(CCN1)C2=CC=C(C=C2)C3=CN4C(=C(C=N4)C5=CC=NC6=CC=CC=C56)N=C3 [DM3189] + COc1cccc2cc(-c3nc([C@H]4CC[C@H](C(=O)O)CC4)n4ncnc(N)c34)[nH]c12 [OSI-027] (partner 0.5 µM)
Procedure, shortened: as §1

Row | Cell Line | relative viability (DM3189 + Foretinib; first compound 0.08 µM) | relative viability (DM3189 + Foretinib; first compound 0.253 µM) | relative viability (DM3189 + Foretinib; first compound 0.8 µM) | relative viability (DM3189 + Foretinib; first compound 2.53 µM) | relative viability (DM3189 + Luminespib; first compound 0.08 µM) | relative viability (DM3189 + Luminespib; first compound 0.253 µM) | relative viability (DM3189 + Luminespib; first compound 0.8 µM) | relative viability (DM3189 + Luminespib; first compound 2.53 µM) | relative viability (DM3189 + Alpelisib; first compound 0.08 µM) | relative viability (DM3189 + Alpelisib; first compound 0.253 µM) | relative viability (DM3189 + Alpelisib; first compound 0.8 µM) | relative viability (DM3189 + Alpelisib; first compound 2.53 µM) | relative viability (DM3189 + Decitabine; first compound 0.08 µM) | relative viability (DM3189 + Decitabine; first compound 0.253 µM) | relative viability (DM3189 + Decitabine; first compound 0.8 µM) | relative viability (DM3189 + Decitabine; first compound 2.53 µM) | relative viability (DM3189 + OSI-027; first compound 0.08 µM) | relative viability (DM3189 + OSI-027; first compound 0.253 µM) | relative viability (DM3189 + OSI-027; first compound 0.8 µM) | relative viability (DM3189 + OSI-027; first compound 2.53 µM)
1 | LCLC-103H | 0.847 | 0.761 | 0.718 | 0.702 | 0.974 | 0.985 | 0.933 | 0.999 | 0.994 | 0.979 | 0.912 | 0.975 | 0.765 | 0.746 | 0.691 | 0.721 | 0.513 | 0.435 | 0.442 | 0.41
2 | PC-3 [JPC-3] | 1.09 | 1.1 | 0.993 | 1.08 | 0.725 | 0.705 | 0.694 | 0.512 | 1.08 | 1.08 | 1.02 | 1.23 | 0.848 | 0.802 | 0.797 | 0.797 | 0.887 | 0.422 | 0.79 | 0.587
3 | NCI-H23 | 1.01 | 0.861 | 0.882 | 0.982 | 0.205 | 0.229 | 0.216 | 0.179 | 0.768 | 0.741 | 0.675 | 0.699 | 0.308 | 0.304 | 0.284 | 0.314 | 0.664 | 0.594 | 0.457 | 0.577
4 | COR-L23 | 1.12 | 0.844 | 0.828 | 0.993 | 1.12 | 0.658 | 0.562 | 0.521 | 0.749 | 0.634 | 0.645 | 0.636 | 0.424 | 0.39 | 0.348 | 0.434 | 0.887 | 0.715 | 0.576 | 0.625
5 | NCI-H1915 | 1.09 | 1.07 | 0.875 | 1.03 | 0.697 | 0.817 | 0.606 | 0.485 | 1.09 | 0.973 | 0.898 | 1.04 | 0.261 | 0.253 | 0.257 | 0.257 | 0.823 | 0.62 | 0.543 | 0.553
